Article PMC6146285 (Journal of pharmacological and toxicological methods, 2018)
Read-outs that look alike come from different tables or passages of the source. Values belong to the molecule of their own block, whether it stands above or below them.

Assays:
Assay type in all cases: cell-based, human
[1] = test system: hiPSC-CMs; conditions: for Arrhythmia incidence by dose level: all sites and cell types tested; for FPDmax compared to pre-addition values: 30 min post compound addition, low risk compounds; for Arrhythmia: one site; for Inotropic effect (impedance signal): hiPSC-CMs; for Average % change in EFP amplitude / FPDmax: with increasing concentrations; for FPD prolongation: cell types other than CLS
[2] = test system: CDI (iCell Cardiomyocytes^2, Cellular Dynamics International) hiPSC-CMs
[3] = test system: PLR (Pluricyte Cardiomyocytes, Ncardia) hiPSC-CMs
[4] = test system: AXG (Cor.4U, Ncardia) hiPSC-CMs
[5] = test system: CLS (Cellartis Cardiomyocytes, Takara Bio Clontech) hiPSC-CMs
[6] = all sites and cell types, dose levels of Table 3

Structure (SMILES): COc1ccc(CCN2CCC(Nc3nc4ccccc4n3Cc3ccc(F)cc3)CC2)cc1 [Astemizole]
Arrhythmia incidence by dose level ([1]; dose levels of Table 3): arrhythmia in most cases at dose 3, and almost all cases at dose 4

Structure (SMILES): CN(C)CCCN1c2ccccc2Sc2ccc(Cl)cc21 [Chlorpromazine]
Arrhythmic events ([1]; independent of the cell type or site): did not induce arrhythmic events

Structure (SMILES): COc1cc(N)c(Cl)cc1C(=O)NC1CCN(CCCOc2ccc(F)cc2)CC1OC (stereo not drawn) [Cisapride]
Arrhythmia incidence by dose level ([1]; dose levels of Table 3): arrhythmia in most cases at dose 3, and almost all cases at dose 4

Structure (SMILES): CC[C@H]1OC(=O)[C@H](C)[C@@H](O[C@H]2C[C@@](C)(OC)[C@@H](O)[C@H](C)O2)[C@H](C)[C@@H](O[C@@H]2O[C@H](C)C[C@H](N(C)C)[C@H]2O)[C@](C)(OC)C[C@@H](C)C(=O)[C@H](C)[C@@H](O)[C@]1(C)O [Clarithromycin]
Arrhythmia incidence by dose level ([1]; dose levels of Table 3): arrhythmia in most cases at dose 3, and almost all cases at dose 4

BRCoV ([2]; CDI, post addition of 10 μM): large increase
Structure (SMILES): CC(C)NCC(O)c1ccc(NS(C)(=O)=O)cc1 (stereo not drawn) [D,l Sotalol]
Arrhythmic events ([2]; CDI, 10 μM): EAD-like events and ectopic beats | Beat rate ([2]; CDI, post addition of 10 μM): decrease | Impedance amplitude ([2]; CDI, post addition of 10 μM): remains unchanged | Arrhythmia detection starting at (dose level) [1, 6]: dose 3

FPDmax compared to pre-addition values [1]: decrease
Structure (SMILES): COc1ccc([C@@H]2Sc3ccccc3N(CCN(C)C)C(=O)[C@@H]2OC(C)=O)cc1 [Diltiazem]

FPDmax ([1]; all cell types at one site): increased
Structure (SMILES): CC(C)N(CCC(C(N)=O)(c1ccccc1)c1ccccn1)C(C)C (stereo not drawn) [Disopyramide]
Arrhythmia ([1]; 10 and 100 μM): Arrhythmia was detected | Arrhythmia detection starting at (dose level) [1, 6]: dose 3 | Inotropic effect (impedance signal) [1]: negative inotropic effect | Average % change in impedance amplitude ([1]; with increasing concentration, all cell types at one site): decreased | Average % change in EFP amplitude ([1]; all cell types at one site): decreased

FPDmax ([1]; all cell types at one site): increased
Structure (SMILES): O=c1[nH]c2ccccc2n1CCCN1CCC(n2c(=O)[nH]c3cc(Cl)ccc32)CC1 [Domperidone]
Arrhythmia ([1]; 0.3, 3 μM): arrhythmia is marked | Arrhythmia incidence by dose level ([1]; dose levels of Table 3): arrhythmia in most cases at dose 3, and almost all cases at dose 4 | Inotropic effect (impedance signal) [1]: negative inotropic effect | Average % change in EFP amplitude ([1]; all cell types at one site): decreased

FPDmax ([3]; 0.3 μM): increase | Beat rate coefficient of variation ([3]; post addition of 0.3 μM): increase
Structure (SMILES): O=C(CCCN1CC=C(n2c(=O)[nH]c3ccccc32)CC1)c1ccc(F)cc1 [Droperidol]
Arrhythmic events ([3]; 0.3 μM): rolling EAD-like events | Beat rate ([3]; post addition of 0.3 μM): decrease | Impedance amplitude ([3]; post addition of 0.3 μM): remains unchanged | Arrhythmia incidence by dose level ([1]; dose levels of Table 3): arrhythmia in most cases at dose 3, and almost all cases at dose 4

FPDmax compared to pre-addition values [1]: not a significant change
Structure (SMILES): CCOC(=O)N1CCC(=C2c3ccc(Cl)cc3CCc3cccnc32)CC1 [Loratadine]

FPDmax compared to pre-addition values [1]: decrease
Structure (SMILES): COC(=O)C1=C(C)NC(C)=C(C(=O)OC)C1c1ccccc1[N+](=O)[O-] [Nifedipine]
Chronic effect on cell viability (base impedance) ([4]; AXG, recorded over 24 h): time and concentration-dependent reduction of cell viability | Inotropic effect (impedance signal) [1]: negative inotropic effect

FPDmax compared to pre-addition values [1]: decrease
Structure (SMILES): CCOC(=O)C1=C(C)NC(C)=C(C(=O)OC)C1c1cccc([N+](=O)[O-])c1 (stereo not drawn) [Nitrendipine]

Structure (SMILES): Cc1nccn1CC1CCc2c(c3ccccc3n2C)C1=O (stereo not drawn) [Ondansetron]
Arrhythmia incidence by dose level ([1]; dose levels of Table 3): arrhythmia in most cases at dose 3, and almost all cases at dose 4

Structure (SMILES): O=c1[nH]c2ccccc2n1C1CCN(CCCC(c2ccc(F)cc2)c2ccc(F)cc2)CC1 [Pimozide]
Arrhythmogenicity ([4]; site 4, AXG cells): not arrhythmogenic | Arrhythmia incidence by dose level ([1]; dose levels of Table 3): arrhythmia in most cases at dose 3, and almost all cases at dose 4

Structure (SMILES): C=C[C@H]1C[N@@]2CC[C@H]1C[C@@H]2[C@@H](O)c1ccnc2ccc(OC)cc12 [Quinidine]
Arrhythmia detection starting at (dose level) [1, 6]: dose 2 | Incidence of FPDmax>10% or > 30% started at (dose level) [1, 6]: dose 1

Structure (SMILES): Cc1nc2n(c(=O)c1CCN1CCC(c3noc4cc(F)ccc34)CC1)CCCC2 [Risperidone]
Change in the FPD ([2]; CDI cells): > 10% | Change in the FPD ([4]; AXG cells): no significant change | Change in the FPD ([5]; CLS cells): no significant change

Structure (SMILES): CC/C(=C(\c1ccccc1)c1ccc(OCCN(C)C)cc1)c1ccccc1 [Tamoxifen]
Decrease of average % change in EFP amplitude ([2]; CDI, 3 μM, one site): ~ 40% | Decrease of average % change in FPDmax ([2]; CDI, 3 μM, one site): ~ 40% | Increase in beat rate ([2]; CDI, 3 μM, one site): ~ 40% | Changes in average impedance signals ([2]; CDI, 0.3, 0.9 and 3 μM): No significant changes

Number of experiments with quiescence ([1]; other experiments): 4
Structure (SMILES): CC(C)(C)c1ccc(C(O)CCCN2CCC(C(O)(c3ccccc3)c3ccccc3)CC2)cc1 (stereo not drawn) [Terfenadine]
Number of experiments with arrhythmia ([1]; site 4, AXG and site 4, CLS): 2

Structure (SMILES): COc1cc2c(Nc3ccc(Br)cc3F)ncnc2cc1OCC1CCN(C)CC1 [Vandetanib]
Arrhythmia detection starting at (dose level) [1, 6]: dose 3

Structure (SMILES): CN(CCOc1ccc(NS(C)(=O)=O)cc1)CCc1ccc(NS(C)(=O)=O)cc1 [dofetilide]
FPD prolongation upon application ([5]; CLS hiPSC-CMs, 0.5-10 nM): did not exhibit an expected FPD prolongation | FPD prolongation ([1]; 0.5 nM): approx. 10% | FPD prolongation ([1]; 10 nM, arrhythmia present): ~100% | Effect on FPD and arrhythmia ([1]; wells treated with 5 nM and 10 nM): prolongation of FPD and arrhythmia
